Measured values from patent publication US7994185B2, “Benzene sulfonamide thiazole and oxazole compounds” (Glaxo Smith Kline LLC, priority 2008, dated 2011).
Where a name gives a salt, the structure may show the parent alone. Read-outs that look alike come from different tables or passages of the source.

Key:
[1] = tested on: Human colon tumor cells (Colo205); assay: Cell growth inhibition assay (CellTiter-Glo), Colo205; assay type: cell-based
Method in brief: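 Read-out was CellTiter-Glo luminescence (total ATP as a cell-number surrogate), expressed as % inhibition against DMSO vehicle wells. Before that, cells grown in RPMI/10% FBS were treated for 3 days at 37 °C with ten 1:3-spaced compound concentrations, final DMSO 0.2%.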

pERK (pERK/tERK) = assay: Pharmacodynamic effect, pERK/tERK in A375P F11s xenograft tumors; assay type: in vivo, mice; conditions: Mus musculus, read-out: inhibition of pERK (pERK/tERK)
Experimental: Animals were housed in pathogen free conditions and handled with aseptic technique. […] Detached cells were collected, centrifuged (1500 rpm, 5 min, 4° C.) and rinsed to remove the trypsin solution. Cells were resuspended in PBS without magnesium or calcium and counted. Cells were spun as previously to remove PBS and a single cell suspension was created either in 50% Matrigel: 50% PBS (v:v) or 100% PBS so that a 100 μL subcutaneous injection would deliver the required number of cells per mouse. The A375P F11s melanoma line was injected with Matrigel at 4 million cells per mouse. Tumors were established (˜150-300 mm^3) for all cell lines within 2-4 weeks post-injection.
At 2 h following oral administration of compound mice were euthanized using carbon dioxide. Tumors were carefully excised, homogenized using Medimachine (BD Bioscience) with 1 ml of lysis buffer (25 mM Tris-HCl (pH 7.5), 2 mM EDTA (pH 8.0), 2 mM EGTA (pH 8.0), 1% Triton X-100, 0.1% SDS, 50 mM Na—B—PO4, 2 mM NaVO4, 4 mM Na-Pyr-PO4, 2× phosphatase inhibitor cocktail. Crude homogenate was transferred to a 12 ml polypropylene tube containing 1.5 ml of lysis buffer and kept on ice. Following homogenization of all samples, 1 ml of homogenate was transferred to an eppendorf tube and centrifuged at 14,000 rpm for 15 min at 4° C. Five hundred microliter of clarified lysate was transferred to a new tube, flash frozen and processed for quantitation of pERK and tERK using western blot or Elisa (MSD) assays. […] BioRad dye was added to BSA dilutions and diluted test lysates. […] Comparison to the standard curve provides a relative measurement of protein concentration. […] The gels were transferred onto nitro-cellulose membranes using the iBlot transfer apparatus, which were then blocked and incubated with different primary antibodies overnight at 4° C. Western blots dually probed against pERK and tERK were scanned using LI-COR Odyssey® reader. A ratio of the immunofluorescent density obtained for pERK/tERK is calculated and expressed as a ratio (in percentage) to control untreated samples. For determination of pERK/tERK ratio by ELISA, MesoScale Discovery (MSD) (cat# K15107) plate were used according to manufacturer's instructions. In brief, MSD plates were block with 150 μl/well of blocking buffer for 1 hr before being washed 4 times with 200 μl of washing buffer. Thirty microliter (30 μl) of serially diluted samples was added to wells and plates were incubated overnight at 4° C. under slow agitation (˜500 rpm). Plates were washed 4 times in 200 μl 1× Tris wash buffer and 25 μl detection antibody solution was added to all wells and incubated at room temperature for 1 hr (˜500 rpm). Plates were washed 4 times in 200 μl wash buffer and 150 μl of read buffer was added to all wells. Plates were read on MSD.SI6000. In this assay vehicle and compound treated samples were tested at 4 different dilutions to allow linear range coverage of the assay. From pERK and tERK signal, background (BSA signal) was subtracted and ratio of pERK/tERK determined and normalized to untreated vehicle samples, arbitrarily set at 100%.

[2] = tested on: Human melanoma cancer cells (SK-MEL-28); assay: Cell growth inhibition assay (CellTiter-Glo), SK-MEL-28; assay type: cell-based
[3] = biological target: T1, BRAFV600E full-length (amino acids 2-766) (Homo sapiens, UniProt P15056, V600E); assay: B-Raf Accelerated MEK ATPase assay (BRAMA); assay type: biochemical
T1 construct: His6-tagged BRAFV600E full-length (amino acids 2-766); His6; made in house; host or cells: baculovirus expression system (insect cells)
Method in brief: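 Coupled-enzyme readout: ADP generated by MEK-mediated ATP hydrolysis, uncoupled from ERK phosphorylation, is linked to NADH oxidation through pyruvate kinase and lactate dehydrogenase.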

[4] = COLO 205, 72 h, Table 2a, 3 days incubation, read-out: Activity in Colo205 Tumor Cells
[5] = COLO 205, Table 2b, later runs, average for the one or more runs, categorized, read-out: IC50 for Colo205
[6] = A375P F11s xenograft tumors, single oral dose of 100 mg/kg, 2 h after administration
[7] = SK-MEL-28, 72 h, Table 3a, 3 days incubation, read-out: Activity in SK-MEL-28 Tumor Cells
[8] = SK-MEL-28, Table 3b, later runs, average for the one or more runs, categorized, read-out: IC50 for SK-MEL-28
[9] = B-Raf Activity, Table 1a, highest pIC50 for the one or more runs, categorized
[10] = B-Raf pIC50, Table 1b, later runs, average pIC50 for the one or more runs, categorized
[11] = Table 1b, later runs, average pIC50 for the one or more runs, categorized, read-out: B-Raf pIC50 (converted)

T1 sequence (P15056 2-766 V600E): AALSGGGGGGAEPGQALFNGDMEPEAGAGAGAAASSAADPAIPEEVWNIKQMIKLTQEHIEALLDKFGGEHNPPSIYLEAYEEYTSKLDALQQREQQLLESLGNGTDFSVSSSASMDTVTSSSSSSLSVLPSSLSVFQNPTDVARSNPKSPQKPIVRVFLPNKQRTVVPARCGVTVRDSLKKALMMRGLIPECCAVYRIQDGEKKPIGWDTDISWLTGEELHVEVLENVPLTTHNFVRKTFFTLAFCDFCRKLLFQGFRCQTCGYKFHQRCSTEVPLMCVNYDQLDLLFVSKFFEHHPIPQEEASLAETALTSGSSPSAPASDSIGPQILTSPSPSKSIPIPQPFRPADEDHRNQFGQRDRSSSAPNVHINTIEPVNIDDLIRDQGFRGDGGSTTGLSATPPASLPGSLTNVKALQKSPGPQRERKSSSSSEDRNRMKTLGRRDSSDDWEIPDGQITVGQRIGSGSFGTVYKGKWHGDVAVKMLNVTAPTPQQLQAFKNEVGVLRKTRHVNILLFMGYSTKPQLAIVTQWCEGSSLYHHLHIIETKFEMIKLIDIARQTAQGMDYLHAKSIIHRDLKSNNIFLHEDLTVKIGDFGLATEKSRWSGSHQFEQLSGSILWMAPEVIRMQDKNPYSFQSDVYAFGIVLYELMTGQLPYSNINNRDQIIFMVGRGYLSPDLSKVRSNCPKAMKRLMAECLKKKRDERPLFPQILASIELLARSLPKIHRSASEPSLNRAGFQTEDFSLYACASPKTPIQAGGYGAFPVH

Structure (SMILES) | IC50 [1, 4] | IC50 [1, 5] | inhibition at 100 mg/kg (pERK (pERK/tERK); [6]) | IC50 [2, 7] | IC50 [2, 8] | IC50 [3, 9] | IC50 [3, 10] | IC50 [3, 11] | inhibition at 100 mg/kg (pERK (pERK/tERK); A375P, po, 2 h) | IC50 [3]
Cc1nccc(-c2sc(C(C)(C)C)nc2-c2cccc(NS(=O)(=O)c3cc(F)ccc3F)c2F)n1 [Example 65, N-{3-[2-(1,1-dimethylethyl)-5-(2-methyl-4-pyrimidinyl)-1,3-thiazol-4-yl]-2-fluorophenyl}-2,5-difluorobenzenesulfonamide] | < 0.1 µM | < 0.1 µM | ≥ 30% | < 0.1 µM | < 0.1 µM | < 0.1 µM | ≤ 0.00316 µM | – | – | –
Nc1nccc(-c2sc(N3CCOCC3)nc2-c2cccc(NS(=O)(=O)c3ccco3)c2Cl)n1 [Example 24, N-{3-[5-(2-Amino-4-pyrimidinyl)-2-(4-morpholinyl)-1,3-thiazol-4-yl]-2-chlorophenyl}-2-furansulfonamide] | < 0.1 µM | 0.1 to 1 µM | ≥ 30% | < 0.1 µM | 0.1 to 1 µM | < 0.1 µM | ≤ 0.00316 µM | – | – | –
O=S(=O)(Nc1cccc(-c2nc(C3CCOCC3)sc2-c2ccncn2)c1Cl)c1c(F)cccc1F [Example 26, N-{2-Chloro-3-[5-(4-pyrimidinyl)-2-(tetrahydro-2H-pyran-4-yl)-1,3-thiazol-4-yl]phenyl}-2,6-difluorobenzenesulfonamide] | < 0.1 µM | < 0.1 µM | ≥ 30% | < 0.1 µM | < 0.1 µM | < 0.1 µM | ≤ 0.00316 µM | – | – | –
Nc1nccc(-c2sc(C3CCOCC3)nc2-c2cccc(NS(=O)(=O)c3c(F)cccc3F)c2F)n1 [Example 64, N-{3-[5-(2-amino-4-pyrimidinyl)-2-(tetrahydro-2H-pyran-4-yl)-1,3-thiazol-4-yl]-2-fluorophenyl}-2,6-difluorobenzenesulfonamide] | < 0.1 µM | < 0.1 µM | ≥ 30% | < 0.1 µM | < 0.1 µM | < 0.1 µM | ≤ 0.00316 µM | – | – | –
Nc1nccc(-c2sc(N3CCOCC3)nc2-c2cccc(NS(=O)(=O)c3c(F)cccc3F)c2F)n1 [Example 59, N-{3-[5-(2-Amino-4-pyrimidinyl)-2-(4-morpholinyl)-1,3-thiazol-4-yl]-2-fluorophenyl}-2,6-difluorobenzenesulfonamide] | 0.1 to 1 µM | 0.1 to 1 µM | ≥ 30% | 0.1 to 1 µM | 0.1 to 1 µM | < 0.1 µM | – | 0.00316 to 0.0316 µM | – | –
Cc1nccc(-c2sc(C3CCOCC3)nc2-c2cccc(NS(=O)(=O)c3c(F)cccc3F)c2Cl)n1 [Example 25, N-{2-Chloro-3-[5-(2-methyl-4-pyrimidinyl)-2-(tetrahydro-2H-pyran-4-yl)-1,3-thiazol-4-yl]phenyl}-2,6-difluorobenzenesulfonamide trifluoroacetate] | 0.1 to 1 µM | 0.1 to 1 µM | ≥ 30% | < 0.1 µM | < 0.1 µM | < 0.1 µM | – | 0.00316 to 0.0316 µM | – | –
CC(C)(C)c1nc(-c2cccc(NS(=O)(=O)c3c(F)cccc3F)c2F)c(-c2ccnc(N)n2)s1 [Example 58, N-{3-[5-(2-amino-4-pyrimidinyl)-2-(1,1-dimethylethyl)-1,3-thiazol-4-yl]-2-fluorophenyl}-2,6-difluorobenzenesulfonamide] | < 0.1 µM | – | – | < 0.1 µM | – | – | – | – | ≥ 30% | –
CC(C)(C)c1nc(-c2cccc(NS(=O)(=O)c3cc(F)ccc3F)c2F)c(-c2ccncn2)s1 [Example 66, N-{3-[2-(1,1-Dimethylethyl)-5-(4-pyrimidinyl)-1,3-thiazol-4-yl]-2-fluorophenyl}-2,5-difluorobenzenesulfonamide] | < 0.1 µM | < 0.1 µM | ≥ 30% | < 0.1 µM | < 0.1 µM | < 0.1 µM | ≤ 0.00316 µM | – | – | –
C[C@@H]1CN(c2nc(-c3cccc(NS(=O)(=O)c4cc(F)ccc4F)c3F)c(-c3ccnc(N)n3)s2)C[C@H](C)O1 [Example 103, N-(3-{5-(2-Amino-4-pyrimidinyl)-2-[(2R,6S)-2,6-dimethyl-4-morpholinyl]-1,3-thiazol-4-yl}-2-fluorophenyl)-2,5-difluorobenzenesulfonamide] | < 0.1 µM | < 0.1 µM | – | < 0.1 µM | < 0.1 µM | < 0.1 µM | ≤ 0.00316 µM | – | – | –
Nc1nccc(-c2sc(C3CCOCC3)nc2-c2cccc(NS(=O)(=O)c3ccoc3)c2F)n1 [Example 281, N-{3-[5-(2-amino-4-pyrimidinyl)-2-(tetrahydro-2H-pyran-4-yl)-1,3-thiazol-4-yl]-2-fluorophenyl}-3-furansulfonamide] | – | < 0.1 µM | – | – | < 0.1 µM | – | ≤ 0.00316 µM | – | – | –
O=S(=O)(Nc1cccc(-c2nc(N3CCOCC3)sc2-c2ccncn2)c1Cl)c1ccoc1 [Example 269, N-{2-chloro-3-[2-(4-morpholinyl)-5-(4-pyrimidinyl)-1,3-thiazol-4-yl]phenyl}-3-furansulfonamide] | – | < 0.1 µM | – | – | 0.1 to 1 µM | – | ≤ 0.00316 µM | – | – | –
CC(C)(C)c1nc(-c2cccc(NS(=O)(=O)c3cc(F)ccc3F)c2F)c(-c2ccnc(NC3CCOCC3)n2)s1 [Example 138] | < 0.1 µM | < 0.1 µM | – | > 1 µM | < 0.1 µM | < 0.1 µM | ≤ 0.00316 µM | – | – | –
CC(C)c1nc(-c2cccc(NS(=O)(=O)c3ccco3)c2)c(-c2ccnc(NCCS(C)(=O)=O)n2)s1 [Example 30, N-{3-[2-(1-Methylethyl)-5-(2-{[2-(methylsulfonyl)ethyl]amino}-4-pyrimidinyl)-1,3-thiazol-4-yl]phenyl}-2-furansulfonamide] | < 0.1 µM | < 0.1 µM | – | < 0.1 µM | < 0.1 µM | < 0.1 µM | ≤ 0.00316 µM | – | – | –
CC(C)c1nc(-c2ccc(F)c(NS(=O)(=O)c3c(F)cccc3F)c2)c(-c2ccnc(NCCCN(C)C)n2)s1 [Example 163] | > 1 µM | 1 to 10 µM | – | > 1 µM | – | – | – | – | – | > 1 µM
CC(C)(C)c1nc(-c2cccc(NS(=O)(=O)c3c(F)cccc3F)c2F)c(-c2ccnc(NCCCS(C)(=O)=O)n2)s1 [Example 12, N-{3-[2-(1,1-Dimethylethyl)-5-(2-{[3-(methylsulfonyl)propyl]amino}-4-pyrimidinyl)-1,3-thiazol-4-yl]-2-fluorophenyl}-2,6-difluorobenzenesulfonamide] | < 0.1 µM | < 0.1 µM | – | < 0.1 µM | < 0.1 µM | < 0.1 µM | ≤ 0.00316 µM | – | – | –
Nc1nccc(-c2sc(N3CCOCC3)nc2-c2cccc(NS(=O)(=O)N3CCOCC3)c2F)n1 [Example 50, N-{3-[5-(2-Amino-4-pyrimidinyl)-2-(4-morpholinyl)-1,3-thiazol-4-yl]-2-fluorophenyl}-4-morpholinesulfonamide] | > 1 µM | 1 to 10 µM | – | > 1 µM | 1 to 10 µM | 0.1 to 1 µM | 0.0316 to 1 µM | – | – | –
